Laboratory results from patent publication US20230391786A1, “cGAS INHIBITORS” (Eli Lilly and Company, priority 2022, published 2023).

biological target: recombinant human cGAS (Homo sapiens (Human), UniProt Q8N884); experiment: In vitro inhibition assay of cGAS activity (cGAMP production, RapidFire mass spectrometry); format: biochemical; details: 10 nM recombinant human cGAS, 60 nM 75-bp dsDNA, ATP, GTP, room temperature 3 hours, read-out: IC50 (μM), In vitro inhibition assay for Compounds 1-94
Sequence (Q8N884 whole entry): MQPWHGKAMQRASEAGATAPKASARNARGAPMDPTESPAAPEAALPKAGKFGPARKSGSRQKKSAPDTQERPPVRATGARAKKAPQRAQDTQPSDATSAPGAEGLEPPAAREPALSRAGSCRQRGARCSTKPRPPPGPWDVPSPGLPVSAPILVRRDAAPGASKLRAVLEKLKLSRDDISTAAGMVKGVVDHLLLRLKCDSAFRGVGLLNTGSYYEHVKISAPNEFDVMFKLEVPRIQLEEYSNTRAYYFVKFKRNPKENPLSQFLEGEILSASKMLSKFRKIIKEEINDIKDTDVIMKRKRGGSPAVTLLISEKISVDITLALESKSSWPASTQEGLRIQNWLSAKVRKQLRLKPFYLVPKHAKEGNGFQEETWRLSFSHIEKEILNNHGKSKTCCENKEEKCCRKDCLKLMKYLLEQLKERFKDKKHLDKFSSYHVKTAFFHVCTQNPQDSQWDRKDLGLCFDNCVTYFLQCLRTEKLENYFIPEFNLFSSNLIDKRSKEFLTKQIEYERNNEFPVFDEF
Protocol: Expression and Purification of Recombinant cGAS Protein: Insert cDNA encoding full-length of human cGAS into a modified bacterial expression vector containing an in-frame His6-tag. Induce the E. coli strain BL21(DE3) harboring the plasmid with 1 mM IPTG (Isopropyl β-D-1-thiogalactopyranoside) at 18° C. overnight. Purify the His6-tagged cGAS protein over HISpur Ni-NTA resin in the presence of benzonase and RNase followed by Superdex 200 size exclusion chromatography with storage buffer (50 mM Tris-HCl pH 7.5, 300 mM NaCl, 1 mM DTT, 10% glycerol).
In vitro inhibition assay of cGAS activity: Add a 5 μL mixture containing 10 mM Tris-Cl pH 7.5, 50 mM NaCl, 5 mM MgCl2, 1 mM DTT, 0.01% Triton X-100, 60 nM 75-bp dsDNA, […], 50 μM GTP, 10 nM of recombinant human cGAS, and serial dilutions of a test compound in DMSO to a 384-well plate and incubate at room temperature for 3 hours. Quench the reaction by the addition of 100 μL of stop solution containing 0.1% formic acid and 0.1 μM internal standard (3′3′-difluoro cGAMP). Measure the amount of cGAMP produced by RapidFire 365 mass spectrometry and evaluate inhibitory effect of a compound by plotting percent specific inhibition of cGAMP production against log concentration of the test compound. Calculate IC50 values using a 4-parameter non-linear logistic equation (y=(S0+((SInf−S0)/(1+((qAC50/x)^nHill))))).

Row | Structure (SMILES) | IC50 [µM]
1 | O=C(O)C1CCn2c(c(-c3cn[nH]c3)c3ccc(Cl)c(Cl)c32)C1 (single isomer, unassigned) [Example 14, 3,4-Dichloro-10-(1H-pyrazol-4-yl)-6,7,8,9-tetrahydropyrido[1,2-a]indole-8-carboxylic acid] | 0.0309
2 | O=C(CN1CCOCC1)N1CCn2c(c(-c3cn[nH]c3)c3ccc(Cl)c(Cl)c32)C1 [Example 45, 1-[6,7-dichloro-10-(1H-pyrazol-4-yl)-3,4-dihydro-1H-pyrazino [1,2-a]indole-2-yl]-2-morpholino-ethanone] | 0.0834
3 | O=C(O)Cn1cc(-n2cc(-c3cn[nH]c3)c3ccc(Cl)c(Cl)c32)cn1 [Example 36, 2-[4-[6,7-Dichloro-3-(1H-pyrazol-4-yl)indol-1-yl]pyrazol-1-yl]acetic acid] | 0.0535
4 | O=C(CO)N1CCn2c(c(-c3cn[nH]c3)c3ccc(Cl)c(Cl)c32)C1 [Example 53, 1-[6,7-dichloro-10-(1H-pyrazol-4-yl)-3,4-dihydro-1H-pyrazino[1,2-a]indol-2-yl]-2-hydroxy-ethanone] | 0.0268
5 | O=C(O)C1CCCn2c(c(-c3cn[nH]c3)c3ccc(Cl)c(Cl)c32)C1 (single isomer, unassigned) [Example 25, 3,4-Dichloro-11-(1H-pyrazol-4-yl)-7,8,9,10-tetrahydro-6H-azepino[1,2-a]indole-9-carboxylic acid] | 0.0412
6 | Clc1ccc2c(-c3cn[nH]c3)cn(-c3cn[nH]n3)c2c1Cl [Example 34, 6,7-Dichloro-3-(1H-pyrazol-4-yl)-1-(2H-triazol-4-yl)indole] | 0.0691
7 | OCC1CCn2c(c(-c3cn[nH]c3)c3ccc(Cl)c(Cl)c32)C1 (single isomer, unassigned) [Example 16, [3,4-Dichloro-10-(1H-pyrazol-4-yl)-6,7,8,9-tetrahydropyrido[1,2-a]indol-8-yl]methanol] | 0.0674
8 | O=C(O)C1CCn2c(c(-c3cn[nH]c3)c3ccc(Cl)c(Cl)c32)C1 (single isomer, unassigned) [Example 13, 3,4-Dichloro-10-(1H-pyrazol-4-yl)-6,7,8,9-tetrahydropyrido[1,2-a]indole-8-carboxylic acid] | 0.0117
9 | Clc1ccc2c(-c3cn[nH]c3)c(CNc3nncs3)[nH]c2c1Cl [Example 10, N-[[6,7-Dichloro-3-(1H-pyrazol-4-yl)-1H-indol-2-yl]methyl]-1,3,4-thiadiazol-2-amine] | 0.0629
10 | CNC(=O)N1CCn2c(c(-c3cn[nH]c3)c3ccc(Cl)c(Cl)c32)C1 [Example 39, 6,7-dichloro-N-methyl-10-(1H-pyrazol-4-yl)-3,4-dihydro-1H-pyrazino[1,2-a]indole-2-carboxamide] | 0.0392
11 | O=C1Cn2c(c(-c3cn[nH]c3)c3ccc(Cl)c(Cl)c32)CN1 [Example 8, 6,7-Dichloro-10-(1H-pyrazol-4-yl)-2,4-dihydro-1H-pyrazino[1,2-a]indol-3-one] | 0.0531
12 | CS(=O)(=O)N1CCn2c(c(-c3cn[nH]c3)c3ccc(Cl)c(Cl)c32)C1 [Example 41, 6,7-dichloro-2-methylsulfonyl-10-(1H-pyrazol-4-yl)-3,4-dihydro-1H-pyrazino[1,2-a]indole] | 0.0328
13 | OC1CCCc2c(-c3cn[nH]c3)c3ccc(Cl)c(Cl)c3n2C1 (stereo not shown) [Example 78, 3,4-Dichloro-11-(1H-pyrazol-4-yl)-7,8,9,10-tetrahydro-6H-azepino[1,2-a]indol-7-ol] | 0.0427
14 | CN1Cc2c(-c3cn[nH]c3)c3ccc(Cl)c(Cl)c3n2CC1=O [Example 75, 6,7-Dichloro-2-methyl-10-(1H-pyrazol-4-yl)-1,2-dihydropyrazino[1,2-a]indol-3(4H)-one] | 0.045
15 | O[C@H]1C[C@@H](Nc2cc(Cl)c(Cl)c3[nH]cc(-c4cn[nH]c4)c23)C1 [Example 67, (cis)-3-((6,7-Dichloro-3-(1H-pyrazol-4-yl)-1H-indol-4-yl)amino)cyclobutanol] | 0.0371
16 | OCC1CCn2c(c(-c3cn[nH]c3)c3ccc(Cl)c(Cl)c32)C1 (single isomer, unassigned) [Example 15, [3,4-Dichloro-10-(1H-pyrazol-4-yl)-6,7,8,9-tetrahydropyrido[1,2-a]indol-8-yl]methanol] | 0.289

The next lines start with the values.

Row | IC50 [µM] | Structure (SMILES)
17 | 0.0326 | N#CCOc1cc(Cl)c(Cl)c2[nH]cc(-n3ccnc3)c12 [Example 61, 2-[(6,7-Dichloro-3-imidazol-1-yl-1H-indol-4-yl)oxy]acetonitrile]
18 | 0.0815 | CS(=O)(=O)NCCn1cc(-c2cn[nH]c2)c2c(OCC#N)cc(Cl)c(Cl)c21 [Example 84, N-[2-[6,7-Dichloro-4-(cyanomethoxy)-3-(1H-pyrazol-4-yl)indol-1-yl]ethyl]methanesulfonamide]
19 | 0.0641 | Cc1[nH]c2c(Cl)c(Cl)ccc2c1-n1ccnc1 [Example 4, 6,7-Dichloro-3-imidazol-1-yl-2-methyl-1H-indole]
20 | 0.0772 | N#CCOc1cc(Cl)c(F)c2[nH]cc(-n3ccnc3)c12 [Example 72, 2-[(6-Chloro-7-fluoro-3-imidazol-1-yl-1H-indol-4-yl)oxy]acetonitrile]
21 | 0.0257 | CN1CCn2c(c(-c3cn[nH]c3)c3c(OCC#N)cc(Cl)c(Cl)c32)C1=O [Example 85, 2-((6,7-Dichloro-2-methyl-1-oxo-10-(1H-pyrazol-4-yl)-1,2,3,4-tetrahydropyrazino[1,2-a]indol-9-yl)oxy)acetonitrile]
22 | 0.0273 | N#CCNc1cc(Cl)c(Cl)c2[nH]cc(-c3cn[nH]c3)c12 [Example 63, 2-[[6,7-Dichloro-3-(1H-pyrazol-4-yl)-1H-indol-4-yl]amino] acetonitrile]
23 | 0.0242 | NC(=O)COc1cc(Cl)c(Cl)c2[nH]cc(-c3cn[nH]c3)c12 [Example 59, 2-[[6,7-Dichloro-3-(1H-pyrazol-4-yl)-1H-indol-4-yl]oxy]acetamide]
24 | 0.0158 | N#CCOc1cc(Cl)c(Cl)c2[nH]cc(-c3cn[nH]c3)c12 [Example 58, 2-[[6,7-Dichloro-3-(1H-pyrazol-4-yl)-1H-indol-4-yl]oxy]acetonitrile]
25 | 0.0587 | CCOc1cc(Cl)c(Cl)c2c1c(-c1cn[nH]c1)c1n2CCNC1 [Example 90, 6,7-Dichloro-9-ethoxy-10-(1H-pyrazol-4-yl)-1,2,3,4-tetrahydropyrazino[1,2-a]indole]

same assay, conditions: 10 nM recombinant human cGAS, 60 nM 75-bp dsDNA, ATP, GTP, room temperature 3 hours, read-out: IC50 (μM), In vitro inhibition assay for Compounds 95-348

Row | Structure (SMILES) | IC50 [µM]
26 | CN1C(=O)CCC1C(=O)N1CCn2c(c(-c3cn[nH]c3)c3ccc(Cl)c(Cl)c32)C1 (stereo not shown) [Example 326, 5-(6,7-Dichloro-10-(1H-pyrazol-4-yl)-1,2,3,4-tetrahydropyrazino[1,2-a]indole-2-carbonyl)-1-methylpyrrolidin-2-one] | 0.0627
27 | O=C(NCc1[nH]c2c(Cl)c(Cl)ccc2c1-c1cn[nH]c1)c1cscn1 [Example 104, N-((6,7-Dichloro-3-(1H-pyrazol-4-yl)-1H-indol-2-yl)methyl)thiazole-4-carboxamide] | 0.0872
28 | O=C1CCCN1CC(=O)N1CCn2c(c(-c3cn[nH]c3)c3ccc(Cl)c(Cl)c32)C1 [Example 316, 1-(2-(6,7-Dichloro-10-(1H-pyrazol-4-yl)-3,4-dihydropyrazino[1,2-a]indol-2(1H)-yl)-2-oxoethyl)pyrrolidin-2-one] | 0.0509
29 | CN1C(=O)CN(CC(=O)N2CCn3c(c(-c4cn[nH]c4)c4ccc(Cl)c(Cl)c43)C2)C1=O [Example 327, 1-(2-(6,7-Dichloro-10-(1H-pyrazol-4-yl)-3,4-dihydropyrazino[1,2-a]indol-2(1H)-yl)-2-oxoethyl)-3-methylimidazolidine-2,4-dione] | 0.0635
30 | CN1C(=O)CCC1CC(=O)N1CCn2c(c(-c3cn[nH]c3)c3ccc(Cl)c(Cl)c32)C1 (stereo not shown) [Example 324, 5-(2-(6,7-Dichloro-10-(1H-pyrazol-4-yl)-3,4-dihydropyrazino[1,2-a]indol-2(1H)-yl)-2-oxoethyl)-1-methylpyrrolidin-2-one] | 0.0626
31 | O=C1Cn2c(c(-c3cn[nH]c3)c3ccc(Cl)c(Cl)c32)CC(CO)N1 (stereo not shown) [Example 101, 7,8-Dichloro-2-(hydroxymethyl)-11-(1H-pyrazol-4-yl)-2,3-dihydro-1H-[1,4]diazepino[1,7-a]indol-4(5H)-one] | 0.0705
32 | COCCOCCC(=O)N1CCn2c(c(-c3cn[nH]c3)c3ccc(Cl)c(Cl)c32)C1 [Example 317, 1-(6,7-Dichloro-10-(1H-pyrazol-4-yl)-3,4-dihydropyrazino[1,2-a]indol-2(1H)-yl)-3-(2-methoxyethoxy)propan-1-one] | 0.0516

Now from value to compound:

Row | IC50 [µM] | Structure (SMILES)
33 | 0.0593 | O[C@@H]1CC[C@@H](Oc2cc(Cl)c(Cl)c3[nH]cc(-c4cn[nH]c4)c23)C1 (racemic) [Example 99, trans-3-((6,7-Dichloro-3-(1H-pyrazol-4-yl)-1H-indol-4-yl)oxy)cyclopentan-1-ol (racemic mixture)]
34 | 0.0585 | OCC(O)CNc1cc(Cl)c(Cl)c2[nH]cc(-c3cn[nH]c3)c12 (stereo not shown) [Example 175, 3-[[6,7-Dichloro-3-(1H-pyrazol-4-yl)-1H-indol-4-yl]amino]propane-1,2-diol]
